Measured values: PMC11355195 (Life, 2024)
Values after ≈ are worked out from the molar mass of the structure shown.

Columns and labels:
DPPH scavenging capacity = settings: 0.1 mM DPPH
Description: The method utilized to test the compound’s efficacy in scavenging DPPH radicals was based on protocols detailed in references, with minor changes. The test was completed in duplicate for each concentration. A solution of 0.1 mM DPPH (2,2-diphenyl-1-picrylhydrazyl) was produced, and the compounds were evaluated at different concentrations ranging from 1 to 500 µg/mL. Ascorbic acid served as the positive control with concentrations ranging from 0.01 to 300 µg/mL [35].

ABTS scavenging activity = experiment: ABTS scavenging activity
Text: With a few minor adjustments, the procedure published by Re et al., was used to evaluate the test samples’ capacity to scavenge radicals against the ABTS (2,2′-azinobis-3-ethylbenzothiazoline-6-sulphonate) radical cation.

MDA-MB-436 = experiment: MTT cell viability, MDA-MB-436; format: cell-based, Human
Description: (§1) These cell lines were selected to represent distinct sub-types of breast cancer for extensive investigation. […] The medium was added with 10% heat-inactivated fetal calf serum (FCS) to supply vital growth hormones and nutrients necessary for cell proliferation. Additionally, 1% penicillin streptomycin was administered to avoid bacterial contamination, ensuring the sterility and integrity of the cell cultures. The cell cultures were maintained at 37 °C in a humidified environment containing 5% CO2. This controlled environment mimics physiological conditions in the human body, supporting optimal cell development and function. The humidified atmosphere prevents medium evaporation, while the 5% CO2 concentration maintains optimal pH values in the culture medium. These specialized circumstances and methods ensure that the breast cancer cell lines remain healthy and viable for experimental procedures, delivering dependable and reproducible results for research projects. The standard protocols followed for cultivating these cells are crucial for generating consistent and reliable data. Using well-characterized cell lines from a credible source like ATCC ensures the re-liability and comparability of the experimental outcomes.
(§2) This approach determines cell viability based on the ability of living cells to decrease MTT to a purple, water-insoluble formazan product. Cells were planted in 96-well plates at a density of 1 × 10^4 cells per well in 100 μL of complete culture media, which provides all necessary nutrients for cell growth. […] The cells were then treated with the compounds for 24, 48, and 72 h to determine the effect on cell viability over varied time intervals. Following each incubation time, 20 μL of MTT solution (at a concentration of 5 mg/mL in PBS) were applied to each well. The plates were further incubated for 4 h at 37 °C, during which time live cells decrease the MTT to formazan, creating purple crystals. At the end of the incubation, the medium containing the MTT was carefully aspirated, leaving only the formazan crystals in the bottom of the wells. […]

COX-1 = biological target: T1, COX-1 (Ovis aries, UniProt P05979); experiment: COX-1-catalyzed prostaglandin production inhibition; format: biochemical, ram
T1 construct: The COX-1 enzyme was produced from ram seminal vesicles; purchased Cayman Chemical Company, Ann Arbor, MI, USA; host or cells: ram seminal vesicles (tissue)
T1 sequence (P05979 25-600): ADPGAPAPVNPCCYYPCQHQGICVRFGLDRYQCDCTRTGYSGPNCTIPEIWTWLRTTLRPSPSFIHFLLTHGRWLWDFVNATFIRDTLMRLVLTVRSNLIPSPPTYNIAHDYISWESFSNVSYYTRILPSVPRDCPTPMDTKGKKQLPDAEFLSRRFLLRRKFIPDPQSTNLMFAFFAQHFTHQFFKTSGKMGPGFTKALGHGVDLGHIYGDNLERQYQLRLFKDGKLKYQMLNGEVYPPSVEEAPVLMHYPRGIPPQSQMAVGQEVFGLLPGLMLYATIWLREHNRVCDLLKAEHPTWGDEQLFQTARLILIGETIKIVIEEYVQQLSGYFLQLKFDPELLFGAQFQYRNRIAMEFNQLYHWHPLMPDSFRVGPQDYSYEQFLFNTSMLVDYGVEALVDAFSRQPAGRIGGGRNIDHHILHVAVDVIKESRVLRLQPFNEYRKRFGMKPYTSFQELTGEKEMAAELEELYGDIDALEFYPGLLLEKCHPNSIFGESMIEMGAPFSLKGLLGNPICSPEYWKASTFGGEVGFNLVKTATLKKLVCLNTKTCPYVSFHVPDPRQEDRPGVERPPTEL
Description: The COX inhibitory effects of the substances were examined using a COX-1/COX-2-catalyzed prostaglandin production test, using a modified approach by Futaki et al.. The chemicals were dissolved in 4% DMSO to a final concentration of 100 µg/mL.
In this test, one unit of COX-1 or COX-2 enzyme was suspended in a 0.1 M Tris-HCl buffer (pH 7.5) containing hematin ([…]) and phenol (2 mM) as cofactors. The COX-1 enzyme was produced from ram seminal vesicles, while COX-2 was taken from sheep placenta with a purity of 70% (both from Cayman Chemical Company, Ann Arbor, MI, USA). The reaction mixture was preincubated with either the solvent vehicle (4% DMSO) or the test solution for 2 min at 37 °C. […] Arachidonic acid, tagged with radioactive carbon ([1–14C]), serves as a substrate for the COX enzymes. The mixture was then incubated for an additional 2 min at 37 °C. […] The organic solvent phase was removed, and the PGE2 level in the remaining aqueous phase was quantified using a radioimmunoassay with a liquid scintillation counter, which measures the radioactivity (disintegrations per minute, DPM) of the [1–14C]-labeled PGE2. The percentage inhibition of COX-catalyzed prostaglandin production by the test compounds was estimated by comparing the radioactivity of the samples with the solvent vehicle controls. […]

MDA-MB-231 = experiment: MTT cell viability, MDA-MB-231; format: cell-based, Human
Description: as §1, §2

MCF-7 cells = settings: at 24 and 48 h; ref Mari et al. (2021) [78]; read-out: IC50, survival of MCF-7 cells; cited from earlier work
[1] = Oxygen radical absorbance capacity (ORAC); settings: Trolox equivalents
Description: The ORAC (Oxygen Radical Absorbance Capacity) test was carried out using a modified version of the procedure reported by Huang et al.. This test examines the antioxidant capacity of compounds by examining their ability to neutralize oxygen radicals. The method was carried out utilizing a 96-well microplate format. First, 150 µL of fluorescein solution, produced as 8 × 10^−8 M fluorescein in 0.075 M phosphate buffer (pH 7.4), were dispersed to each well. Fluorescein is a fluorescent probe whose fluorescence lowers when it reacts with radicals. Next, 25 µL of the substance or mixture to be evaluated was added to the corresponding wells. Wells containing 25 µL of phosphate buffer served as blanks, and wells containing 25 µL of Trolox solution (from 10 to 100 µm) were utilized as standards. Control wells containing 50 µL phosphate buffer without any radicals were also added to provide a baseline. The reaction was initiated by adding 25 µL of a freshly produced solution of AAPH (2,2′-azobis(2-methylpropionamidine) dihydrochloride) at a concentration of 165.94 mM in phosphate buffer to each well, except for the control wells, at a temperature of 37 °C. AAPH creates peroxyl radicals that induce oxidative stress in the fluorescein solution, simulating free-radical attack. […] The fluorescence in-tensity of the mixture was then monitored at regular intervals for 120 min.

MCF-7 = experiment: MTT cell viability, MCF-7; format: cell-based, Human
Description: as §1, §2

[2] = test system: peripheral blood mononuclear cells (PBMC); experiment: MTT cell viability, PBMC (normal cell control); format: cell-based; settings: MTT test, 72 h of treatment (Figure 3)
Description: This approach determines cell viability based on the ability of living cells to decrease MTT to a purple, water-insoluble formazan product. Cells were planted in 96-well plates at a density of 1 × 10^4 cells per well in 100 μL of complete culture media, which provides all necessary nutrients for cell growth. […] The cells were then treated with the compounds for 24, 48, and 72 h to determine the effect on cell viability over varied time intervals. Following each incubation time, 20 μL of MTT solution (at a concentration of 5 mg/mL in PBS) were applied to each well. The plates were further incubated for 4 h at 37 °C, during which time live cells decrease the MTT to formazan, creating purple crystals. At the end of the incubation, the medium containing the MTT was carefully aspirated, leaving only the formazan crystals in the bottom of the wells. To dissolve these crystals, 100 μL of DMSO were administered to each well. […] This formula quantifies the reduction in cell viability in response to the treatments compared to the control. […] Cisplatin, a known anticancer drug, was used as a reference drug at varying concentrations from 0.01 to 50 µg/mL.

[3] = MTT test, 72 h of treatment (Figure 3)

O=C1O[C@H]([C@@H](O)CO)C(O)=C1O [Ascorbic acid (AA), Ascorbic acid, reference compound]
DPPH Scavenging Capacity IC50 (DPPH scavenging capacity): 188.24 ± 6.46 µg/mL | ABTS Scavenging Activity IC50 (ABTS scavenging activity): 25.20 ± 3.06 µg/mL

Cc1ccc(C(C)C)cc1O [Carvacrol, 2-methyl-5-(1-methylethyl)phenol]
IC50 (MDA-MB-436; Homo sapiens, MDA-MB-436, 72 h, read-out: IC50 Value ± SD, MDA-MB-436): 9.5 ± 1.15 µg/mL (≈ 63.2 µM) | IC50 (COX-1): 470 µM | ABTS Scavenging Activity IC50 (ABTS scavenging activity): 107.88 ± 4.46 µg/mL | IC50 (MDA-MB-231; Homo sapiens, MDA-MB-231, 72 h, read-out: IC50 Value ± SD, MDA-MB-231): 9.76 ± 0.23 µg/mL (≈ 65 µM) | IC50 (MCF-7 cells): 200 µM | Oxygen Radical Absorbance Capacity [1]: 3.535 ± 0.127 mmol TE/g | IC50 (MCF-7; Homo sapiens, MCF7, 72 h, read-out: IC50 Value ± SD, MCF-7): 5.93 ± 0.77 µg/mL (≈ 39.5 µM)

N.N.[Cl][Pt][Cl] [Cisplatin, reference compound]
IC50 Value ± SD, PBMC [2]: 25.36 ± 1.40 µg/mL | IC50 Value ± SD, MDA-MB-436 (MDA-MB-436; [3]): 3.96 ± 0.59 µg/mL | IC50 Value ± SD, MDA-MB-231 (MDA-MB-231; [3]): 4.60 ± 0.66 µg/mL | IC50 Value ± SD, MCF-7 (MCF-7; [3]): 8.43 ± 0.92 µg/mL
